Experimental data taken from paper PMC5059851, “Inhibition of Hedgehog-dependent tumors and cancer stem cells by a newly identified naturally occurring chemotype” (Cell Death & Disease, 2016).
pIC50: −log10 of the molar value.

Experiments:
murine Smo WT = molecular target: T1, murine Smo WT (Mus musculus, UniProt P56726); test: Bodipy-Cyclopamine (BC) binding assay, HEK293T cells transfected with mouse Smo WT
T1 construct: Flag; expressed in transfected cells; host or cells: HEK293T
Method: Cells were washed in PBS supplemented with 0.5% fetal bovine serum, fixed in 4% paraformaldehyde in phosphate-buffered saline (PBS) for 10 min, and incubated for 2 h at 37 °C both in the same medium supplemented with Bodipy-Cyclopamine (5 nM) and the studied compounds. The cells were permeabilized with Triton X100 (Sigma) 0.2%. Dako Fluorescent mounting (Dako, Carpinteria, CA, USA) was used as mounting medium and Hoechst reagent for staining of the cell nuclei. Bodipy (green) and Hoechst (blue) signals were analyzed in three to four representative fields per coverslip (× 20 magnification, 1000 cells/field). Data were expressed as percentage of BC incorporation observed with BC alone.[95]
BC binding (green) is visualized using fluorescence microscopy in a representative field (a). […] Quantitative data are the average BC intensity from five independent fluorescence microscopy images.

[1] = system: Hh target genes (Gli1 and others) in Ptch1^−/− MEFs; test: qRT-PCR of endogenous Hh target genes in Ptch1−/− MEFs; type: cell-based, mouse; details: 5 μM, 48 h
Excerpt: For this reason, we focused further studies only on 12. To investigate the inhibitory properties of 12 on Hh pathway, we analyzed endogenous Hh target gene activation in genetically defined Ptch1^−/− mouse embryonic fibroblasts (Ptch1^−/− MEFs) (Figure 2a). In these cells, constitutive activation of the Hh pathway is the consequence of the loss of repressive receptor Ptch1 gene, thus determining high expression levels of Hh target.
Figure 2 Compound 12 inhibits Hh signaling without affecting AP1/Jun and WNT/β-Catenin pathways. (a) The graphs show the Hh target genes expression levels in Ptch1^−/− MEFs treated for 48 h with 12 or DMSO as control. mRNA levels were determined by quantitative real-time PCR (qRT-PCR) normalized to endogenous control (β2-microglobulin and HPRT). Pfkfb3 gene was used as negative control. *P<0.05 versus CTR. […]
Total RNA was isolated with Trizol (Invitrogen/Life Technologies, Carlsbad, CA, USA) and reverse transcribed with SensiFAST cDNA Synthesis Kit (Bioline Reagents Limited, London, UK). Quantitative real-time PCR (Q-PCR) analysis of Gli1, Gli2, Ptch1, Bmp2, Pfkfb3, CycD1, CycD2, Pcna, Oct4, Nanog, β-2 microglobulin, β-actin and HPRT mRNA expression was performed on each cDNA sample using the VIIA7 Real Time PCR System employing Assay-on-Demand Reagents (Life Technologies). […]

[2] = system: cerebellar granule cell progenitors (GCPs); test: BrdU proliferation assay in SAG-treated cerebellar granule cell progenitors; type: cell-based, mouse; details: SAG + compound at 5 and 10 μM, 48 h
Excerpt: (§1) Hh signaling is a critical regulator of cerebellum development controlling the proliferation of granule cell progenitors (GCPs) under Purkinje cell-derived Shh stimuli. Withdrawal of Hh signal, occurring physiologically after the first post-natal week in mice,[54] causes cell growth arrest and induces their differentiation into mature granules.[55] Importantly, genetic and epigenetic alterations in the Hh pathway are responsible for the lack of GCPs proliferation arrest, leading to the tumorigenic conversion of these progenitors, considered as the cell of origin of MB.[56], [57] To investigate the biological effects of 12, we first tested its ability to suppress Hh-dependent growth in 4-day-old mouse cerebellar progenitors.
Figure 4 Compound 12 inhibition of Hh-dependent growth of cerebellum granule cell progenitors. […] (a) Inhibition of cell proliferation was measured as percentage of BrdU incorporation in comparison with SAG-treated sample. […] (c) qRT-PCR analysis show Hh and proliferation targets mRNA expression levels determined in GCPs culture derived from 4-day-old mouse cerebella treated with SAG alone or in combination with compound 12 at 5 and 10 μM concentrations for 48 h. […]
Cell proliferation was evaluated by BrdU detection (Roche, Welwyn Garden City, UK). […] At least 500 nuclei were counted in triplicate, and the number of BrdU-positive nuclei was recorded. […]

[3] = system: Hh target genes and growth markers in GCPs; test: qRT-PCR of Hh and proliferation targets in SAG-treated GCPs; type: cell-based, mouse; details: SAG + compound at 5 and 10 μM, 48 h
Excerpt: as §1
Figure 4 Compound 12 inhibition of Hh-dependent growth of cerebellum granule cell progenitors. (a and b) BrdU assay in cerebellar granule cell progenitors (GCPs). GCPs isolated from 4-day-old mice were treated with SAG alone or in combination with compound 12 at 5 and 10 μM concentrations for 48 h. (a) Inhibition of cell proliferation was measured as percentage of BrdU incorporation in comparison with SAG-treated sample. […] (c) qRT-PCR analysis show Hh and proliferation targets mRNA expression levels determined in GCPs culture derived from 4-day-old mouse cerebella treated with SAG alone or in combination with compound 12 at 5 and 10 μM concentrations for 48 h. […]

[4] = system: primary MB cells from Ptch1^+/− mice; test: Trypan blue growth count of primary MB cells from Ptch1+/− mice; type: cell-based, mouse; details: ex vivo cultures from Ptch1^+/− mice MBs
Method: (§2) Cell proliferation was evaluated by BrdU detection (Roche, Welwyn Garden City, UK). Briefly, after the BrdU pulse (24 h for GCPs) cells were fixed with 4% paraformaldehyde and permeabilized with 0.2% Triton X-100, and BrdU detection was performed according to the manufacturer's instructions. Nuclei were counterstained with Hoechst reagent. At least 500 nuclei were counted in triplicate, and the number of BrdU-positive nuclei was recorded. To determine the growth rate of viable cells, a trypan blue count was performed after a treatment period of 24–48–72 h with studied compound.

[5] = system: human prostate carcinoma epithelial 22Rv1 cells; test: Trypan blue growth count of 22Rv1 cells; type: cell-based; details: versus Cyclopamine, Vismodegib, LDE-225
Method: After the indicated times, a trypan blue count was performed to determine the growth rate. […] Results were normalized to endogenous control (β-actin and HPRT).
as §2

T1 sequence (P56726 33-793): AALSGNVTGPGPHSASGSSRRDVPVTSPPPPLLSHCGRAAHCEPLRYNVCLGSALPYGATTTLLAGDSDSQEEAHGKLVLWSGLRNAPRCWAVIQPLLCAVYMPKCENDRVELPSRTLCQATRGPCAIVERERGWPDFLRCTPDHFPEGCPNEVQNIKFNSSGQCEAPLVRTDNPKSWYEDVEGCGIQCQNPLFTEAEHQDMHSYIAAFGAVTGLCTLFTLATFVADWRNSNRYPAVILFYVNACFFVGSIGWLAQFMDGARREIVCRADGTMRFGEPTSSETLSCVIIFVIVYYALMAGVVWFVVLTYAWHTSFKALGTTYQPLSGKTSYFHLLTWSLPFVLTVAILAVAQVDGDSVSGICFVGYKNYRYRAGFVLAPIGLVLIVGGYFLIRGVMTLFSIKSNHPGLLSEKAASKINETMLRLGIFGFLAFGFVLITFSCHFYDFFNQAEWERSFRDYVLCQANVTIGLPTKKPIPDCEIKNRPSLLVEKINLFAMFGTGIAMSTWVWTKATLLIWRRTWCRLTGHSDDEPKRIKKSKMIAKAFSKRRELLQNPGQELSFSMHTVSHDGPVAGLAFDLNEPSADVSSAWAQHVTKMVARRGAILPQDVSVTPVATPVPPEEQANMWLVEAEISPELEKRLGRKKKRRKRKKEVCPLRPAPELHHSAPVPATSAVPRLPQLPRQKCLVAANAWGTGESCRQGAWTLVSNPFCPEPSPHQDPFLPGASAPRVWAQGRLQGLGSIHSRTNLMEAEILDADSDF

SMILES: COc1ccc(C=CC(=O)c2cc(OC)c(OC)cc2OC)cc1OC [Compound 12, 3-(3,4-dimethoxy-phenyl)-1-(2,4,5-trimethoxy-phenyl)-2-propen-1-one]
- pIC50 (murine Smo WT; BC (5 nM) displacement, transiently transfected 293T cells): 4.34
- inhibition of BC binding to murine Smo WT (murine Smo WT; HEK293T cells, various concentrations): significantly inhibited BC binding
- mRNA levels of endogenous Hh target genes, including Gli1 [1]: significantly reduced
- BrdU uptake / proliferation rate of GCPs [2]: reduced significantly
- mRNA levels of Hh target genes and cell growth markers (Gli1, Gli2, Ptch1, Pcna, cyclin D2) [3]: reduced mRNA levels
- proliferation of primary MB cells [4]: significant inhibition of the proliferation
- inhibition of 22Rv1 cell proliferation [5]: higher activity than other Smo antagonists
